# Source: patent publication US20250100962A1 (CITY OF HOPE, priority 2023, published 2025)
# Entries after “also recorded” stand apart in the source; their conditions may differ.
# Columns and labels:
# [1] = tested on: CLOCK/Bmal1-mediated transcription; test: Luciferase assay: 293A cells transfected with Bmal1 and CLOCK, Period2-driven luciferase reporter; assay type: cell-based; details: 0.2 μM for 6 hours, Per2-luciferase reporter
# Procedure: Cells were seeded at 4×10^5 concentration on 24 well plates. The seeding density was decided after trying several densities and choosing the one that after 24 h lead to 90% confluence. At 90% confluence cell transfection was performed using Opti-MEMTM Reduced Serum Medium (Gibco-Thermo Fisher CN:31985062) with PGL2, PRL, pcDNA3.0-BMAL1-His, PcDNA3.0-6×Myc-CLOCK (AddGene CN: 47334) pcDNA3.0-3×FLAG-cry2 plasmids and PEI max 40 k (Polysciences Inc CN: 24765-1). After 24 h of transfection, cells were treated with desired compounds and controls in 10% FBS 1% PSG DMEM media for desired times. Cells were extracted with 1×PLB provided in the Dual-Luciferase® Reporter Assay Kit (Promega CN: E1910) and transferred to 96-well black plate to be treated with LARII and Stop & Glo components according to protocol of the Dual-Luciferase® Reporter Assay Kit (Promega CN: E1910). Luminescence was measured on microplate (ELISA) reader (TECAN infinite […]). The mean and standard deviation values were calculated for each well and graphed.
# C2C12 myoblasts = test: Clock and Wnt pathway gene/protein expression in C2C12 myoblasts during myogenic differentiation; assay type: cell-based, mouse
# Procedure: Total protein (20-30 μg) was extracted using standard IP Lysis buffer (3% NaCl, 5% Tris-HCl, 10% Glycerol, 0.5% Triton X-10 in Sterile MilliQ water) and resolved on 10% SDS-Page gels followed by western blotting on Immun-Blot PVDF Membranes for Protein Blotting (Bio-rad). Antibodies used were diluted in 5% milk (Labscientific CN: M0841). Membranes were washed with TBS-T [10% TBS, 0.1% Tween™ 20 (Fisher BioReagents CN: BP377-500)]. Images were developed using Luminol solution 1:1 SuperSignal West Pico PLUS Stable Peroxide Solution (Thermo Scientific CN: 1863095) and SuperSignal West Pico PLUS Luminol Enhancer Solution (Thermo Scientific CN: 1863094) on chemiluminescence imager (GE Healthcare Bio-Sciences AB Amersham Imager 680).
# Cells extracted with TRIzol™ Reagent (Ambion CN: 15596018) were collected. RNA extraction was performed with Chloroform (Fisher Chemical CN: C298-500) and Isopropanol (Fisher Chemical CN: A451SK-4) extraction followed by two purification steps with 75% Ethanol (Fisherbrand CN: HC-800-1GAL) and elution in Sterile MilliQ water.
# The RNA concentration was measured using Nanodrop spectrophotometer (Thermo Fisher). Following RNA extraction, retro transcription was performed using RevertAid RT Reverse Transcription Kit (Thermo Fisher CN: K1691) and run on SimpliAmp Thermal Cycler (Thermo Fisher CN: A24811) according to the kit procedure. Quantitative PCR was performed using PowerUp™ SYBR™ Green Master Mix (Thermo Fisher CN: A25742) using a dilution of 5:2:1 master mix, RNA and H2Omq according to the protocol on ViiA 7 Real-Time PCR System (Applied Biosystems). Relative expression levels were determined using the comparative Ct method to normalize target genes to 36B4 internal controls.
# Pictures were taken every day to monitor morphological progression, and proteins and RNA samples were collected on days indicated.
# [2] = tested on: C3H10T1/2 cells containing Per2::dLuc luciferase reporter; test: Bioluminescence monitoring of Per2::dLuc reporter in C3H10T1/2 cells; assay type: cell-based; details: 10T1/2 cells
# Procedure: (§1) Generation of stable adipogenic progenitor cell lines containing Per2::dLuc. 3T3-L1 preadipocytes and the C3H10T1/2 mesenchymal stem cells obtained from ATCC were used for Per2:: dLuc lentiviral transduction and stable clone selection using puromycin, as described previously (Guo et al., 2012). Briefly, cells were transfected with lentiviral packaging plasmids (pSPAX.2 and pMD2.G) and lentivirus vectors Per2::dLuc using PEI Max (Polysciences). At 48 hours post-transfection, lentiviruses were collected. 3T3-L1 and C3H10T1/2 […] cells were infected using collected lentiviral media supplemented with polybrene. 24 hours following lentiviral infection, stable cell lines were selected in the presence of 2 μg/ml puromycin.
# (§2) Continuous Bioluminescence monitoring of Per2:: dLuc luciferase reporter. 3T3-L1 and C3H10T1/2 cells containing a Per2::dLuc luciferase reporter were generated as described previously (Xiong et al., 2023). […] Raw and subtracted results of real-time bioluminescence recording data for 6 days were exported, and data was calculated as luminescence counts per second, as previously described (Xiong, Li, Nam et al., 2022). […] Briefly, raw data following the first cycle from day 2 to […] were fitted to a linear baseline, and the baseline-subtracted data (polynomial number=1) were fitted to a sine wave, from which period length and goodness of fit and damping constant were determined.
# [3] = tested on: 3T3-L1 preadipocytes containing Per2::dLuc luciferase reporter; test: Bioluminescence monitoring of Per2::dLuc reporter in 3T3-L1 preadipocytes; assay type: cell-based
# Procedure: as §1, §2
# C2C12 myoblast cell line = test: MTT cell viability of C2C12 myoblasts; assay type: cell-based; details: 0.2-5 μM for 48 hours
# Procedure: Cells were seeded at 5×10^4 concentration in 100 μl culture medium into 96 wells flat bottom microplates and treated after 24 h with desired compounds and controls. After desired incubation periods, cells were treated with MTT labeling reagent 1× (MTT (3-[4,5-dimethylthiazol-2-yl]-2,5-diphenyltetrazolium bromide labeling reagent, 5 mg/ml in PBS, Roche Cell Proliferation Kit I (MTT)) and Solubilization buffer 1× (10% SDS in 0.01 M HCl and left overnight. Next morning absorbance was measured at 570 nm and 700 nm on microplate (ELISA) reader (TECAN infinite M200pro). The mean and standard deviation values were calculated for each well and graphed.
# FIGS. 41A-41D. Effect of Chlorhexidine (CHX) and CM002 treatment on viability of mouse and human myoblasts. To determine potential toxic effects of CHX and CM002, we treated mouse C2C12 myoblast cell line with increasing concentrations from 0.2-5 μM for 48 hours and determined cell viability using the MTT assay (FIG. 41A). […] Considering the inflammatory milieus in dystrophic muscles, we further tested the tolerance of myoblasts to these molecules in the presence of inflammatory stimuli, a cytokine cocktail (CC) consisted of 10 ng/mL IL-1β, 100 ng/mL IFN-γ and 25 ng/mL of TNF-α (FIG. 41B). […] Lastly, human primary myoblasts derived from Duchene Muscular Dystrophy (DMD) patients were used to determine their tolerance to these compounds.
compound,measurement,setting,value
"[H]/N=C(\N/C(=N/[H])NCCCCCCNC(=N)NC(=N)Nc1ccc(Cl)cc1)Nc1ccc(Cl)cc1 [CHX, chlorhexidine]",induction of CLOCK/Bmal1-activated transcription,[1],~26%
same,CLOCK and Bmal1 protein levels with targets Rev-erbα and Cry2,"C2C12 myoblasts; 0.5 uM, through 6 days of differentiation",robustly stimulated
same,"induction of Wnt10a, Fzd5 and β-catenin in Bmal1-deficient myoblasts",C2C12 myoblasts; BMKD myoblasts,completely abolished in Bmal1-deficient myoblasts; also recorded: abolished in Bmal1-deficient cells
same,"induction of Clock, Bmal1, Rev-erbα and Per2 in Bmal1 shRNA (BMKD) cells","C2C12 myoblasts; day 4 of myogenic differentiation, vs scrambled control",completely abolished in the BMKD cells
same,"Wnt10a, Fzd5 and β-catenin expression","C2C12 myoblasts; scrambled control (SC) myoblasts, RT-qPCR",significantly induced by CHX at 0.5 μM with tendency toward induction at 0.2 μM
same,clock period length,[2],"dose-dependent clock period shortening, with this effect significant only for 1 and 2 μM"
same,clock cycling amplitude,[2]; 1 and 2 μM,augment clock cycling amplitude
same,clock cycling amplitude,[3],increasing amplitude
same,clock period length,[3],reducing period length
same,concentration at which number of viable cells drops,C2C12 myoblast cell line,2500 nM
